In one test the target is T1, BRAF-GTP-KRASWT complex (Homo sapiens, UniProt P01116+P62937).
T1 construct: substitute His6-KRas WT-GTP (1-169) for His6-KRas G12C-GTP (1-169); 500 nM of tagless CypA (1-165)
Put plainly: KRAS-BRAF complex disruption TR-FRET with wild-type KRAS (G12C specificity). The class given is biochemical. Particulars: with CYPA. How it is done:
In this example, TR-FRET was used to measure the compound-facilitated disruption of a KRAS-BRAF complex. A mixture of tagless Cyclophilin A, His6-KRAS G12C-GMP-PNP, and GST-BRAF RAS binding domain was added to a 384-well assay plate containing compounds of the invention and incubated for 3 hours. A mixture of Anti-His Eu-W1024 and anti-GST allophycocyanin was then added and the reaction was incubated for an additional 1.5 hours. TR-FRET signal was read on an EnVision microplate reader (Perkin Elmer, Ex 320 nm, Em 665/615 nm). Compounds that facilitate disruption of a KRAS_BRAF complex were identified as those eliciting a decrease in the TR-FRET ratio relative to DMSO control wells. To determine the presenter-dependence of the compound-mediated KRAS-BRAF complex disruption, Cyclophilin A was left out of the initial incubation (see Table 5). To determine G12C specificity of the compound-mediated KRAS-BRAF complex disruption, wild-type KRAS was used instead of G12C KRAS (see Table 5).
Reagents and Instrument • Tagless CYPA; 519 μM in PBS buffer, pH 7.4 • GST BRAF; 110 μM in PBS buffer, pH 7.4 • His6-KRASG12C-GMP-PNP; 50 μM in PBS buffer, pH 7.4 • His6-KRASWT-GMP-PNP; 40 μM in PBS buffer, pH 7.4 • Anti-His Eu-W1024 (LANCE® Eu-W1024; Perkin Elmer) • Anti-GST allophycocyanin (Anti-GST IgG conjugated to SureLight®-Allophycocyanin; Perkin Elmer; Product Number AD0059G) • Test compounds, 10 mM in 100% DMSO • EnVision (Perkin Elmer) • Combi MultiDrop liquid dispenser with 8-channel small volume cassette • 384-well ProxiPlate (black)
Experimental Protocol • 1. Use Mosquito to dispense 100 nL/well of compounds (varying concentration in […]) into 384-well black ProxiPlate to make assay-ready-plate (ARP). • 2. Make assay buffer containing 25 mM Hepes pH 7.3, 100 mM NaCl, 5 mM MgCl2, 0.05% BSA, and 0.002% Tween-20. • 3. Make PRE-MIX A: delivers final concentrations of 50 nM of His6-KRas G12C-GTP (1-169) and 500 nM of tagless CypA (1-165) in assay buffer. • a. […] Read on EnVision (Ex: 320 nm; Em1: 615 nm; Em2: 665 nm). • 8. […]

The target in test [1] is T2, BRAF-GTP-KRAS-G12C complex (Homo sapiens, UniProt P01116+P62937, G12C).
T2 construct: 50 nM of His6-KRas G12C-GTP (1-169); 500 nM of tagless CypA (1-165)
The test is described as follows: KRAS-BRAF complex disruption through competition with CYPA-compound by TR-FRET. The conditions noted are these: biochemical BRAF-KRAS G12C-GTP disruption assay EC50, with CYPA. Summed up:
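Compound-driven loss of KRAS–BRAF RBD TR-FRET signal, Eu-anti-His/APC-anti-GST pair (10/50 nM, 1.5 h), following a 3 h room-temperature preincubation of 50 nM His6-KRAS G12C-GTP and 500 nM CypA in 25 mM Hepes pH 7.3 buffer. EC50 by 4-parameter fit. Variants used wild-type KRAS in place of G12C or no CypA.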

The target in another test is T3, KRAS-G12C (Homo sapiens, UniProt P01116+P62937, G12C).
T3 construct: CypA 1-165 (final concentration 5 μM)
The test is described as follows: Percentage of crosslinking to KRAS-G12C in the presence of BME and CYPA (TOF-MS). Particulars: 5 min incubation; compound 2 μM, CypA 5 μM, G12C-GMPNP 0.5 μM, BME. The class given is biochemical. How it is done:
• 1. 10×Incubation buffer: 125 mM HEPES pH 7.4, 750 mM NaCl, 10 mM MgCl2 • 2. 50 μM Protein A stock (CypA) in incubation buffer • 3. 5 μM Protein B (G12C-GMPNP) stock in incubation buffer • 4. 20 μM compound stock in 1×Incubation buffer with 10% DMSO • 5. 25 mM BME stock solution (prepared by diluting the BME stock in Milli Q water)
CypA 1-165 (final concentration 5 μM), test compound (final concentration 2 μM) and G12C-GMPNP (final concentration 0.5 μM) were incubated in the incubation buffer ([…]) for the requisite amount of time at room temperature. The samples were quenched with formic acid, final concentration 0.5%. 10 μL aliquots were injected to TOF-MS.
Sequence of Addition for a Final Incubation Volume of 50 μL • 1. 5 μL 10×incubation buffer • 2. 28 ul H2O • 3. 2 μL from 25 mM BME stock • 4. 5 μL CypA at 50 uM • 5. 5 μL from 5 μM G12C-GMPNP • 6. 5 μL compound from 20 μM compound stock
LC-MS is performed on an Agilent 6230 TOF-LC mass spectrometer equipped with an electrospray probe operated in positive ionization mode. 10 μL samples are injected on a Sepax Bio-C4, 300 Å, 2.1×100 mm column. The mobile phase is 0.1% (vol/vol) formic acid and 0.1% 1 mM ammonium formate in 95% water, 4.8% acetonitrile (A) and 0.1% (vol/vol) formic acid and 0.1% 1 mM ammonium formate in 95% acetonitrile and 4.8% water (B). The separation is performed by a 9 min total gradient consisting of 5 min linear gradient from 25% to 50% B, and a wash at 100% B for 1.25 min, all at a flow rate of 0.6 mL/min (see attached timetable below). Mass spectrometer source conditions were capillary voltage, 4,000 V; cone voltage, 120 V; source temperature, 275° C.; scan range, 100-2,000 a.m.u. with a cycle time of 1 s.
The observed mass is generated by averaging the major peak in the total ion current (TIC). The charge-state series of the species are deconvoluted using Agilent MassHunter Bioconfirm using maximum entropy setting (range is set to 17000-23000 Da). […]

As usually defined, the IC50 is the concentration at which inhibition is half-maximal. A higher IC50 goes with weaker potency. A word on the EC50: it is the midpoint of the concentration-response curve. On to `CC1COC(=O)C2CCCN(N2)C(=O)C(NC(=O)C(C(C)C)N(C)C(=O)C2CN(C(=O)CCl)C2)Cc2cc(O)cc(c2)-c2ccc3c(c2)c(cn3CC2COC2)C1` (mixture of isomers) [Compound 226], for which the IC50 at BRAF-GTP-KRASWT complex is above 30 µM. The same compound had a concentration for a half-maximal effect (EC50) in test [1] of at most 0.5 µM. In addition, the “% Crosslinking with KRAS-G12C-GTP in presence of CYPA, 5 min incubation” value at KRAS-G12C was 27%.

The compound `CC1COC(=O)C2CCCN(N2)C(=O)C(NC(=O)C(C(C)C)N(C)C(=O)C2CN(C(=O)CCl)C2)Cc2cc(O)cc(c2)-c2ccc3c(S(C)(=O)=O)cn(c3c2)C1` (single isomer, unassigned) [Compound 110] returned a concentration for half-maximal inhibition (IC50) at BRAF-GTP-KRASWT complex above 30 µM. Also, the EC50 in test [1] was at most 0.5 µM. The “% Crosslinking with KRAS-G12C-GTP in presence of CYPA, 5 min incubation” value on KRAS-G12C stood at 83%.
